Like-named read-outs stand apart in the source and are kept apart here.
What was measured:
recombinant human PKD1 [1] = biological target: T1, recombinant human PKD1 (Homo sapiens, UniProt Q15139); conditions: cited from earlier work
T1 construct: His; purchased Millipore (Billerica, MA)
T1 sequence (Q15139 1-912): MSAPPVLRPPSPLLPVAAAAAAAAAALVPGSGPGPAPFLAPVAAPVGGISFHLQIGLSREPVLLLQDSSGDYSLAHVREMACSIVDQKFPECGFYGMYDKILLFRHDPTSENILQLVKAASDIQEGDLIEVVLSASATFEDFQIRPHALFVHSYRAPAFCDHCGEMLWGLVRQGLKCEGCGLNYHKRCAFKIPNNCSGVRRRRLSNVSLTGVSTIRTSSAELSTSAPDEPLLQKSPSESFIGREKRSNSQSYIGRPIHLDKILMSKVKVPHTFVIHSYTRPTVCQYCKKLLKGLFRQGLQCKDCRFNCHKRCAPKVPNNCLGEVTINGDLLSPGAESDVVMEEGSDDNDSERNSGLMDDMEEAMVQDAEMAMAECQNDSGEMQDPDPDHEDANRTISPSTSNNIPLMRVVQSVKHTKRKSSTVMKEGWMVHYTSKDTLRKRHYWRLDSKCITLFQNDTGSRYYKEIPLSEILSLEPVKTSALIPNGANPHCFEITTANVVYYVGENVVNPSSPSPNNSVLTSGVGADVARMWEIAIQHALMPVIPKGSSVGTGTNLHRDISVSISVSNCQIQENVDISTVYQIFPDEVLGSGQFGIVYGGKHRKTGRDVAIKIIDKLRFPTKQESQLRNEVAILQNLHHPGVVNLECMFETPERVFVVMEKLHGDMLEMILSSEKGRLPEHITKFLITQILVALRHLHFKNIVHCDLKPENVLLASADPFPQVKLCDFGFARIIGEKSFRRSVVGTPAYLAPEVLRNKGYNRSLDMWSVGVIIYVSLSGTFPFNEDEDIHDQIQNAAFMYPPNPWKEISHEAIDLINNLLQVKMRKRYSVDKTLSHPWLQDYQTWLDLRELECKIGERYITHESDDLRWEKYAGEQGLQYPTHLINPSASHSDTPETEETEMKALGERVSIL

[2] = biological target: T2, endogenous PKD1 (Ser916 phosphorylation) in LNCaP prostate cancer cells (Homo sapiens, UniProt Q15139); test: Western blot of PMA-induced phospho-Ser916-PKD1 in LNCaP cells; assay type: cell-based; conditions: LNCaP cells; for inhibition at 50 µM: read-out: Inhibition of phosphorylation of Ser916-PKD1; for Concentration dependence of inhibition of PMA-induced endogenous PKD1 activity: Western blot
T2 construct: phosphorylation of endogenously expressed PKD1 Ser^916; endogenous in cells; host or cells: LNCaP prostate cancer cells
T2 sequence (Q15139 1-912): T1 sequence (Q15139 1-912)
Method: Briefly, prostate cancer cells (LNCaP) were exposed to test compounds. Cells were lysed in buffer (200 mM Tris-HCl, pH 7.4, 100 µM 4-(2-aminoethyl) benzenesulfonyl fluoride, 1 mM EGTA, and 1% Triton X-100) and cell lysates were subjected to SDS-PAGE then electrotransferred to nitrocellulose membranes. Membranes were blocked with 5% nonfat milk in Tris-buffered saline. Membranes were probed with a primary antibody then followed by a secondary anti-mouse or anti-rabbit secondary antibody conjugated to horseradish peroxidase (1∶1000, Bio-Rad). Bands were visualized by the enhanced chemiluminescence Western blotting detection system (Amersham Biosciences). The primary antibodies included p-S916-PKD1 antibody (Millipore) and GAPDH (Enzo Life Sciences, Plymouth Meeting, PA).
[…] Whole cell lysates were immunoblotted for phosphorylated Ser^916-PKD1 with GAPDH serving as a loading control.

recombinant human PKD1 [3] = biological target: T1, recombinant human PKD1; test: In vitro radiometric PKD1 kinase assay; assay type: biochemical
Method: Kinase reactions were initiated with the addition of ATP (50 µM ATP, 1.0 µCi γ-^33P-ATP; Perkin Elmer, Boston, MA) and incubated for 20 min at 30°C. Twenty-five µL of the reaction was spotted onto Whatman P81 filter paper (Whatman Inc., Clifton, NJ). Filter papers were then washed three times in 0.5% phosphoric acid, air-dried, and counted using an LS6500 multi-purpose scintillation counter (Beckman Coulter, Fullerton, CA). IC50 determinations were performed using GraphPad Prism software 5.0. Radiometric PKD2 and PKD3 in vitro kinase assays were performed as previously described.

recombinant human PKD1 [4] = biological target: T1, recombinant human PKD1; test: ATP competition studies (radiometric PKD1 assay, Michaelis-Menten/Lineweaver-Burk); assay type: biochemical; conditions: PKD1, ATP 12.5–1000 µM
Method: For ATP competition studies, recombinant human PKD1 (1 ng/µL) and Syntide-2 substrate peptide (200 ng/µl) in kinase buffer were incubated with a concentration range of test compound. Kinase reactions were initiated with a concentration range of cold ATP (12.5–1000 µM) supplemented with 1.0 µCi γ-^33P-ATP (Perkin Elmer) and processed as described above. Enzyme inhibition was analyzed and visualized using the Michaelis-Menten and Lineweaver-Burk functions of GraphPad Prism 5.0.

[5] = system: T3, recombinant human protein kinase D1 (PKD1); test: IMAP-based PKD1 FP high throughput screening assay; assay type: biochemical; conditions: LOPAC screen, 10 µM, duplicate
T3 construct: His; purchased Millipore (Billerica, MA)
Method: An HTS IMAP-based PKD1 FP assay was developed and used to screen the PMLSC library to identify primary active compounds as previously described, [19]. In brief, the basis for the in vitro homogeneous IMAP PKD1 FP assay is the interaction of nanoparticles with covalent phosphorylated moieties generated when active PKD1 enzyme phosphorylates small, fluorescently labeled substrate peptides. The PKD1 kinase reactions were assembled stepwise by the addition of 3× substrate/ATP (300 nM/60 µM), compound and PKD1 enzyme (0.18 units/mL). Positive (MAX) and negative (MIN) control kinase reactions contained DMSO (1%) and Gö6976 (1 µM) or H-89 (100 µM) in 1% DMSO (final concentrations), respectively. All assay plates were setup in a standard 384-well configuration as previously described and all reagents were prepared in kinase reaction buffer. Kinase reactions were incubated for 90 min at room temperature and then were stopped with the addition of 18 µL of IMAP binding reagents (1∶400) in 1× binding buffer A (proprietary composition, Molecular Devices). These nanoparticles associate with substrate peptide phospho groups creating a larger phosphosubstrate–nanoparticle complex. The phosphosubstrate–nanoparticle binding can be quantified and is expressed as millipolarization (mP) units. […] Assay plates were centrifuged at 50 g for 1 min, incubated at room temperature for 2 hr and FP data were collected on a Molecular Devices SpectraMax M5 (excitation A485/emission A525). This assay was also used in secondary concentration response studies to initially determine IC50 concentrations of compounds. IC50 determinations were performed using GraphPad Prism software 5.0 (La Jolla, CA).
A PKD1 IMAP FP assay was developed and optimized to identify small molecule inhibitors of PKD1 kinase activity. Using this assay system, we screened the LOPAC and PMLSC compound sets (196,425 total compounds) for novel PKD inhibitory chemotypes. […] For the LOPAC screen each compound was evaluated in duplicate at a single concentration (10 µM). […]

AKT = test: IMAP-based AKT counter screen; assay type: biochemical; conditions: concentrations up to 50 µM
Source text: (§1) It was also gratifying that, in general, our novel cell active PKD1 inhibitors appeared to be less promiscuous than PKD1 inhibitors having minimal to no cellular PKD1 inhibitory activity (Table 1). For example, CIDs 755673 and 1893668 display additional confirmed activity in six and seven, respectively, PubChem bioassays while CID 2011756 has confirmed activity in only one additional PubChem bioassay. […] In contrast, the remaining chemotypes registered as confirmed actives in 2–43 additional bioassays (Table 1). Additional chemical similarity searching, focusing on our four novel cell-active PKD1 inhibitory chemotypes, using MetaDrug also supports a comparative lack of promiscuity of these compounds.

CDK7 = test: IMAP-based CDK7 counter screen; assay type: biochemical; conditions: concentrations up to 50 µM
Source text: as §1

PLK1 = test: IMAP-based PLK1 counter screen; assay type: biochemical; conditions: concentrations up to 50 µM
Source text: as §1

[6] = 50 µM compound 45 min, then PMA 10 nM 20 min
[7] = radiometric PKD1 kinase assay, mean ± range or SD of 2–4 independent experiments, read-out: In vitro PKD1 IC50

Molecule | Inhibition of phosphorylation of Ser916-PKD1 (in words) [2, 6] | IC50 (recombinant human PKD1 [3]; [7]) [nM] | Mechanism of Action (with respect to ATP) (recombinant human PKD1 [4]) | other results
NC(=O)c1cc(-c2ccnc(NC3CCCCC3)c2)nc(N2CCNCC2)c1 [BKPDi] |  |  |  | Mechanism of Action (with respect to ATP) (recombinant human PKD1 [1]; known mechanism of action of the PKD inhibitor BKPDi, listed as BPKDi): ATP competitive
NC(N)=NC(=O)c1nc(Cl)c(N)nc1N [CID 16230, amiloride chloride, reference compound] | little or no inhibition | 2100 ± 150 |  | inhibition at 50 µM [2, 6]: < 50%
CC1(C)Oc2ccc3ccc(=O)oc3c2-c2cn[nH]c21 [CID 646236] |  | 1100 ± 100 | ATP competitive | 
O=C1c2ccccc2-c2onc3ccc(NCCCn4ccnc4)c1c23 [CID 663844] | little or no inhibition | 4800 ± 600 |  | 
O=C1NCCCc2c1oc1ccc(O)cc21 [CID 755673] | confirmed as a cell active PKD1 inhibitor |  |  | Mechanism of Action (with respect to ATP) (recombinant human PKD1 [1]; previously determined): Non-ATP competitive; Concentration dependence of inhibition of PMA-induced endogenous PKD1 activity [2]: concentration-dependent inhibition
CCN1/C(=C/C(C)=O)Sc2ccc(OC)cc21 [CID 1893668, (1Z)-1-(3-ethyl-5-methoxy-1,3-benzothiazol-2-ylidene)propan-2-one, reference compound] |  | 1700 ± 300 |  | inhibition at 50 µM [2, 6]: > 50%; EC50 ([2]; PMA stimulation, n = 3, read-out: Cellular EC50 (phospho-Ser916-PKD1)): 52000 ± 14000 nM; Concentration dependence of inhibition of PMA-induced endogenous PKD1 activity [2]: concentration-dependent inhibition
CCC1=NNc2cccc3c(OC)ccc1c23 [CID 2876479] | some cellular inhibition | 2200 ± 1800 | ATP competitive | 
CC1Cc2ccccc2N1c1ncnc(N)c1[N+](=O)[O-] (stereo not shown) [CID 2958734] | little or no inhibition | 6100 ± 200 | ATP competitive | 
Clc1cncc(Cl)c1NNc1ccncc1 [CID 4438738] |  | 3300 ± 100 | ATP competitive | 
Nc1nc2ccc([N+](=O)[O-])c(N)c2s1 [CID 5086667] | some cellular inhibition |  | ATP-competitive inhibitor | Mechanism of Action (with respect to ATP) (recombinant human PKD1 [4]; listed as 5086667): ATP competitive
NC(=O)c1cn([C@@H]2O[C@H](CO)[C@@H](O)[C@H]2O)c2ncnc(N)c12 [CID 9549170, sangivamycin, reference compound] |  |  | ATP competitive | IC50 (recombinant human PKD1 [3]): 400 ± 300 nM
CC1CNCCN1S(=O)(=O)c1cccc2cnccc12 (stereo not shown) [H7] |  |  |  | Inhibition of control signal (primary active) [5]: ≥ 50%
CNCCNS(=O)(=O)c1cccc2cnccc12 [H8] |  |  |  | Inhibition of control signal (primary active) [5]: ≥ 50%
O=S(=O)(NCCNC/C=C/c1ccc(Br)cc1)c1cccc2cnccc12 [H89] |  |  |  | Inhibition of control signal (primary active) [5]: ≥ 50%
(6Z)-6-[4-(3-aminopropylamino)-6-methyl-1H-pyrimidin-2-ylidene]cyclohexa-2,4-dien-1-one [CID 5389142] |  |  | ATP competitive | AKT kinase inhibition (AKT): no kinase inhibition; CDK7 kinase inhibition (CDK7): no kinase inhibition; Inhibition of phosphorylation of Ser916-PKD1 [2, 6]: greater than 50%; Concentration dependence of inhibition of PMA-induced endogenous PKD1 activity [2]: concentration-dependent inhibition; PLK1 kinase inhibition (PLK1): no kinase inhibition

— publication PMC3187749, “Discovery of Diverse Small Molecule Chemotypes with Cell-Based PKD1 Inhibitory Activity” (PLoS ONE, 2011)
